Test results published in patent US20220184091A1, “Methods of Treating Cancer with Chk1 Inhibitors” (Sierra Oncology, Inc., priority 2019, published 2022).

Tests used:
[1] = Excretion of SRA737 in rats; format: in vivo; settings: rat; over 24 hours
Method: The excretion of SRA737 has been studied in mice and rats administered SRA737 at either 5 mg/kg IV or 10 mg/kg orally. Urine and feces were collected for a 24-hour period after dosing. In mice, renal excretion of intact SRA737 was consistently low (less than 10% of dose) after both oral and IV administration. Following IV administration of SRA737, less than 8% of the dose was recovered as intact drug in the feces while after oral administration this figure was less than 3%. Excretion of intact SRA737 was lower in the rat than in the mouse with <1% of dose excreted renally over 24 hours and less than 1.5% of dose excreted into the feces over 24 hours.

PD-L1 = assay: Western blot of total PD-L1 in SCLC cell lines; format: cell-based; settings: all SCLC cell lines tested; 1 μM for 72 hours
Method: (§1) Western blot analysis was performed using SDS-PAGE followed by transfer to nitrocellulose membrane using the BioRad Gel system. Membranes were incubated in the following primary antibodies (1:1000) overnight: PD-L1 (CST), total and phospho- (S366) STING (CST), total and phospho- (S396) IRF3 (CST), phospho-YH2AX (CST) and Actin (Sigma). Secondary anti-rabbit, HRP-linked antibodies were purchased from Cell Signaling Biosciences and detected using the Chemidoc imaging system mage-captured with Image Studio Version 3.1 software.

STING pathway = assay: Immunoblot of STING pathway proteins in resected RPP tumors; format: in vivo, mouse; settings: RPP tumors resected at Day 21
Method: as §1

[2] = test system: cryopreserved hepatocytes; assay: Rank order of stability in cryopreserved hepatocytes across species; format: in vitro ADME, human, mouse, rat, dog, minipig and monkey; settings: 10 μM, up to 4 hours
Method: The formation of SRA737-related metabolites was determined in cryopreserved hepatocytes from human, mouse, rat, dog, minipig and monkey samples after incubation with SRA737 at a nominal concentration of 10 μM for up to 4 hours. […] In the human hepatocyte preparation, approximately 67% of the parent remained after 4 hours of incubation compared to 75% and 7% in the rat and minipig preparations, respectively. Eight human SRA737 metabolites were observed. All SRA737 metabolites formed by human hepatocytes were also formed by monkey hepatocytes. Six metabolites were present at equal or greater abundance in the monkey.

MC38 = MC38 colon flank tumor growth in immunocompetent mice; format: in vivo, mouse
Method: (§2) Tumors were evaluated twice weekly for the duration of the study. Tumor volumes were measured on all mice three times per week and calculated (width^2×length×0.4) using manual calipers. Once the average tumor size was in the range of 120-150 mm^3, mice were randomized into dosing groups using stratified sampling by assigning three animals per group for short-term reverse-phase protein array analysis and long-term treatment. Dosing schedules and duration varied depending on the study. Mice were weighed three times per week for the duration of the study, and a decrease in body weight >15% was considered indicative of a toxic dose. The Student t-test was used to determine statistical significance between compound- and vehicle-treated groups.
(§3) Tumors cells were implanted into the flank of immunocompetent mice. Once the volumes of the tumor reached 150-200 mm^3, the mice were randomized and treated with either monotherapy of SRA737 at 100 mg/kg for 5-days-on/2-days-off p.o., anti-PD1 BIW at 10 mg/kg i.p. or the combination thereof.

SW1990 = assay: Cell viability, pancreatic cancer line SW1990; format: cell-based; settings: Homo sapiens
Pan02 = Pan02 pancreatic flank tumor growth in immunocompetent mice; format: in vivo, mouse; settings: SRA737 100 mg/kg 5-days-on/2-days-off p.o., anti-PD1 BIW 10 mg/kg i.p.
Method: as §2, §3

CXCL10 and CCL5 = assay: qPCR of CXCL10 and CCL5 in MBT-2 tumors; format: in vivo, mouse
Source text: FIGS. 23A-D show the qPCR measurement of CXCL10 and CCL5 mRNA expression in MBT-2 (FIG. 23A and FIG. 23B) and MC38 (FIG. 23C and FIG. 23D) tumors resected after 7 or 14 days of treatment with SRA737 5/7 days. Data presented as mean±SD and p values by t-test * p<0.05, **p<0.01, ***p<0.001.
(§4) Real-time PCR was done using SYBR Select Master Mix (Life Technologies, cat #4472908) according to the manufacturer's protocol. Primers were purchased from Sigma Aldrich, Inc. Triplicate PCR reactions were run on ABI (7500 Fast Real Time PCR System). The comparative Ct method using the average 2ΔΔCT value for each set of triplicates was used, and the average of the biological replicates was calculated. Negative controls were included for every primer set, and GAPDH was used as the […].
The flank of immunocompetent mice was then treated with SRA737 monotherapy for 5-days-on/2-days-off for either one or two cycles and the expression of CCL5 and CXCL10 in extracted tumors were analyzed. […] The previously used dosing regimen of 5-days-on/2-days-off was modified to a schedule of 7-days-on/7-days-off for SRA737 treatment with or without co-treatment with anti-PD1 (Days 3, 7 and 11) based on the results of induction of chemokines secretion after 7 days.

Chk1 = biological target: T1, Chk1 (Homo sapiens, UniProt O14757); assay: In vitro Chk1 autophosphorylation and potentiation of genotoxic agents; format: cell-based
T1 construct: endogenous in cells

IFNβ, CXCL10 and CCL5 = assay: qPCR of IFNβ, CXCL10 and CCL5 mRNA in SCLC cell lines; format: cell-based; settings: 24 and 72 hours
Method: “Con” indicates control. Data presented as mean±SD and p values by t-test ***p<0.001.
as §4

[3] = Phase 1 clinical study, SRA737 monotherapy dose escalation; settings: human, in vivo
Method: A Phase 1 clinical trial was conducted in ‘all comers,’ i.e. no genetic selection was performed, to establish safety, tolerability and pharmacokinetics (“Dose Escalation Phase”). Cohorts consisting initially of a single subject received escalating doses of SRA737, starting in Cohort 1 with 20 mg/day administered orally on a continuous daily dosing schedule in 28 day cycles. the dose was escalated until the maximum tolerated dose (MTD) was identified.
In the Dose Escalation Phase, 18 subjects received SRA737 in 9 dose level cohorts, from 20 to 1300 mg QD; median treatment duration 62.5 days (range 1 to 226). […] Two of 3 subjects experienced DLTs at the 1300 mg once daily dose, each being an inability to receive 75% of the planned SRA737 dose due to GI intolerability, with the individual GI effects being low grade. […] A cohort receiving 500 mg twice daily was added to determine if a twice daily dosing schedule can improve GI tolerability, given the half-life of SRA737 is approximately 10 hours. One of 6 subjects experienced DLTs in the 500 mg twice daily cohort; this was an inability to receive 75% of the planned SRA737 dose due to grade 4 thrombocytopenia with grade 3 neutropenia and anemia.

T1 sequence (O14757 whole entry, species assumed): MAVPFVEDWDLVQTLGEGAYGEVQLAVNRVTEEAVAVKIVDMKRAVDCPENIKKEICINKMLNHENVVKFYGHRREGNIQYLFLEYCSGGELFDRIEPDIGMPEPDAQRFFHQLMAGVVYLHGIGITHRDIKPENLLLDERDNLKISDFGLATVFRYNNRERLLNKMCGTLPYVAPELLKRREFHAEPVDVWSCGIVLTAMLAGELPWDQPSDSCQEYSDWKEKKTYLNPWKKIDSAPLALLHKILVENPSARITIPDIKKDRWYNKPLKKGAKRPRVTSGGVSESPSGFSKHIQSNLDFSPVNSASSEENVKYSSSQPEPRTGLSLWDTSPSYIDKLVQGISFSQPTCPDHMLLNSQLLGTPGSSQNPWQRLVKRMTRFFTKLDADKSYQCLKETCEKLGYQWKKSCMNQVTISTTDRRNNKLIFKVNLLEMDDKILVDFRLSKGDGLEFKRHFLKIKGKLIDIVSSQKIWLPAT

dose excreted into the feces [1]: less than 1.5 % of dose
dose excreted renally [1]: < 1 % of dose
rank order of stability from most stable to least stable [2]: rat≈mouse >monkey≈human >>dog >>minipig
IC50 (SW1990): 700 nM
doses that exceeded the level effective in preclinical models [3]: ≥ 300 mg
T1/2 ([3]; 800 mg): 10.3 h
Structure (SMILES): N#Cc1cnc(Nc2cc(NCC3CNCCO3)c(C(F)(F)F)cn2)cn1 (stereo not shown) [SRA737, 5-[[4-[[morpholin-2-yl]methylamino]-5-(trifluoromethyl)-2-pyridyl]amino]pyrazine-2-carbonitrile]
total PD-L1 levels (PD-L1): significantly increased
STING pathway incl. pSTING_S366, pTBK1_S172, cGAS, pIRF3_S396 in tumors (STING pathway): significant activation of the STING pathway
TGI (MC38; SRA737 100 mg/kg 5-days-on/2-days-off p.o., anti-PD1 BIW 10 mg/kg i.p.): 48%
tumor growth inhibition (MC38; altered regimen SRA737 7-days-on/7-days-off, anti-PD-1 Days 3, 7 and 11): 61%
TGI (Pan02): 59%
CCL5 levels (CXCL10 and CCL5; after 7 days, p<0.01): significantly induced
CCL5 levels (CXCL10 and CCL5; after 14 days): no significant difference
CXCL10 expression (CXCL10 and CCL5; after both 7 days and 14 days, p<0.05): significant induction
potentiation of the cytotoxicity of genotoxic chemotherapeutic agents and targeted agents (Chk1): dose-dependent potentiation
IFNβ, CXCL10 and CCL5 (targets of IRF3) (IFNβ, CXCL10 and CCL5): activated
